Assay results from ChEMBL document CHEMBL4393714, “Multi-targeting protein-protein interaction inhibitors: Evolution of macrocyclic ligands with embedded carbohydrates (MECs) to improve selectivity” (Eur J Med Chem, 2019).
pIC50, pKi: −log10 of the molar value.

Key:
[1] = target: Prostaglandin E2 receptor EP4 subtype (Homo sapiens) (UniProt P35408); assay: Displacement of [3H]PGE2 from human recombinant EP4 receptor at 10 uM measured after 120 mins by scintillation counter method relative to control
[2] = target: Cholecystokinin receptor type A (Homo sapiens) (UniProt P32238); assay: Displacement of [125I]CCK-8s from human recombinant CCK1 receptor at 10 uM measured after 60 mins by scintillation counter method relative to control
[3] = target: Adenosine receptor A3 (Homo sapiens) (UniProt P0DMS8); assay: Displacement of [125I] AB-MECA from human recombinant A3 receptor at 10 uM measured after 120 mins by scintillation counter method relative to control
[4] = Displacement of [3H] batrachotoxinin from rat sodium channel site 2 measured after 60 mins by scintillation counter method
[5] = target: Melanocortin receptor 4 (Homo sapiens) (UniProt P32245); assay: Displacement of [125I]NDP-alpha-MSH from human recombinant MC 4 receptor at 10 uM measured after 120 mins by scintillation counter method relative to control
[6] = target: Muscarinic acetylcholine receptor M3 (Homo sapiens) (UniProt P20309); assay: Displacement of [3H]4-DAMP from human recombinant muscarinic 3 receptor at 10 uM measured after 60 mins by scintillation counter method relative to control
Rattus norvegicus [7] = species on record: Rattus norvegicus; assay: Displacement of [125I]alpha dendrotoxin from rat potassium channel at 10 uM measured after 60 mins by scintillation counter method relative to control
[8] = target: Type-1 angiotensin II receptor (Homo sapiens) (UniProt P30556); assay: Displacement of [125I][Sar1,Ile8]-AT-II from human recombinant AT1 receptor at 10 uM measured after 120 mins by scintillation counter method relative to control
[9] = target: 5-hydroxytryptamine receptor 7 (Homo sapiens) (UniProt P34969); assay: Displacement of [3H]LSD from human recombinant 5-HT7 receptor at 10 uM measured after 120 mins by scintillation counter method relative to control
[10] = target: Galanin receptor type 2 (Homo sapiens) (UniProt O43603); assay: Displacement of [125I]galanin from human recombinant GAL2 receptor at 10 uM measured after 120 mins by scintillation counter method relative to control
[11] = target: 5-hydroxytryptamine receptor 2C (Homo sapiens, UniProt P28335); assay: Displacement of [3H] mesulergine from human recombinant 5-HT2C receptor measured after 120 mins by scintillation counter method
Rattus norvegicus [12] = species on record: Rattus norvegicus; assay: Displacement of [3H] batrachotoxinin from rat sodium channel site 2 at 10 uM measured after 60 mins by scintillation counter method relative to control
[13] = target: 5-hydroxytryptamine receptor 6 (Homo sapiens) (UniProt P50406); assay: Displacement of [3H]LSD from human recombinant 5-HT6 receptor at 10 uM measured after 120 mins by scintillation counter method relative to control
Sequence of 5-hydroxytryptamine receptor 6 (Homo sapiens) (P50406 whole entry): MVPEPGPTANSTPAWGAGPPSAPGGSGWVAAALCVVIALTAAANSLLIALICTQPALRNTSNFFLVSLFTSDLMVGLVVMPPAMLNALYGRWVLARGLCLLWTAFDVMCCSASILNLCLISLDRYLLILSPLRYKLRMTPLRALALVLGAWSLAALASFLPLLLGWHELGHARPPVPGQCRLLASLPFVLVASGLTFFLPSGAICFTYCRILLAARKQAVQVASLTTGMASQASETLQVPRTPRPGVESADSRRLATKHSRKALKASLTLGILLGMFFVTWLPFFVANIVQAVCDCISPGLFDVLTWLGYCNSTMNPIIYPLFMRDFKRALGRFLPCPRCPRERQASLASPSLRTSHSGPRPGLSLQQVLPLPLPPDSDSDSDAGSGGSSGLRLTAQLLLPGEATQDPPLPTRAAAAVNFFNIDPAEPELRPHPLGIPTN

Sequence of 5-hydroxytryptamine receptor 2C (P28335 whole entry): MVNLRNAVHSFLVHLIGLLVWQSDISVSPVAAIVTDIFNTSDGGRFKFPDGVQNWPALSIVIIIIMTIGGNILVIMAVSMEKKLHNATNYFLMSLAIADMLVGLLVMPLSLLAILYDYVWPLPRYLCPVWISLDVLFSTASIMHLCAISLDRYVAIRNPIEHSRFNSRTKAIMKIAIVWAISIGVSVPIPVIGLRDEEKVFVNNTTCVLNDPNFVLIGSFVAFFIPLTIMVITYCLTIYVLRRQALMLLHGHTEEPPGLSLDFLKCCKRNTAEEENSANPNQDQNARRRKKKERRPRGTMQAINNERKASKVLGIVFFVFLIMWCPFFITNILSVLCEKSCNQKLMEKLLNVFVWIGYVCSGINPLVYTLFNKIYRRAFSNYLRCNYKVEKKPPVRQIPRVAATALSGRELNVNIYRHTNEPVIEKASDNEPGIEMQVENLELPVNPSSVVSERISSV
Sequence of Cholecystokinin receptor type A (Homo sapiens) (P32238 whole entry): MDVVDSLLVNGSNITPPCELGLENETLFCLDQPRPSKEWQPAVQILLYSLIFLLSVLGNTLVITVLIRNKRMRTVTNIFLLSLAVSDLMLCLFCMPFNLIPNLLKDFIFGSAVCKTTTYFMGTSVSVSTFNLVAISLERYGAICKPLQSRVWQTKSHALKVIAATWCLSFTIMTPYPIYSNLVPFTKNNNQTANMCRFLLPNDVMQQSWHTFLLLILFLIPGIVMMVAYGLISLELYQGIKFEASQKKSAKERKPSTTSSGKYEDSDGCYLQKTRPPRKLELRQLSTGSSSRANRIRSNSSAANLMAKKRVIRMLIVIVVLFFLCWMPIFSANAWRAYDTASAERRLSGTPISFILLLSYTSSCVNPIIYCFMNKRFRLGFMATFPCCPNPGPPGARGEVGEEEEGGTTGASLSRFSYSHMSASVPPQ
Sequence of Type-1 angiotensin II receptor (Homo sapiens) (P30556 whole entry): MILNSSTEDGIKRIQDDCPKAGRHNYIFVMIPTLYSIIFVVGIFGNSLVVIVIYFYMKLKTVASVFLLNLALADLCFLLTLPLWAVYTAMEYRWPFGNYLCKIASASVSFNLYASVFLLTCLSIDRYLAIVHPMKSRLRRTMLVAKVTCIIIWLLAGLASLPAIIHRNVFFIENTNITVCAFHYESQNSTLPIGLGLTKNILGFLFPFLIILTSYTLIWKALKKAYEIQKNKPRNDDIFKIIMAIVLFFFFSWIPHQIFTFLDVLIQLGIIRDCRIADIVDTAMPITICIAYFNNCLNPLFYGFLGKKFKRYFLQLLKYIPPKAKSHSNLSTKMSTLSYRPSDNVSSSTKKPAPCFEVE
Sequence of Melanocortin receptor 4 (Homo sapiens) (P32245 whole entry): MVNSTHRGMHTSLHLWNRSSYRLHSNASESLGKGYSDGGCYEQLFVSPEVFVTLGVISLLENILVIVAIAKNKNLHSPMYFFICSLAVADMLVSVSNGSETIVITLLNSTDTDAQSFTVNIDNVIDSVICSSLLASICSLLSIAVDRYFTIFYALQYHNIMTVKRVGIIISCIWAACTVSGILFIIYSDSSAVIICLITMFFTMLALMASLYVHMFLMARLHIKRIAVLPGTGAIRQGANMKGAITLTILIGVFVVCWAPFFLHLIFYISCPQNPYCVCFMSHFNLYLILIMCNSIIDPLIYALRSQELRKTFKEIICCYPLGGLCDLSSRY
Sequence of Muscarinic acetylcholine receptor M3 (Homo sapiens) (P20309 whole entry, looked up): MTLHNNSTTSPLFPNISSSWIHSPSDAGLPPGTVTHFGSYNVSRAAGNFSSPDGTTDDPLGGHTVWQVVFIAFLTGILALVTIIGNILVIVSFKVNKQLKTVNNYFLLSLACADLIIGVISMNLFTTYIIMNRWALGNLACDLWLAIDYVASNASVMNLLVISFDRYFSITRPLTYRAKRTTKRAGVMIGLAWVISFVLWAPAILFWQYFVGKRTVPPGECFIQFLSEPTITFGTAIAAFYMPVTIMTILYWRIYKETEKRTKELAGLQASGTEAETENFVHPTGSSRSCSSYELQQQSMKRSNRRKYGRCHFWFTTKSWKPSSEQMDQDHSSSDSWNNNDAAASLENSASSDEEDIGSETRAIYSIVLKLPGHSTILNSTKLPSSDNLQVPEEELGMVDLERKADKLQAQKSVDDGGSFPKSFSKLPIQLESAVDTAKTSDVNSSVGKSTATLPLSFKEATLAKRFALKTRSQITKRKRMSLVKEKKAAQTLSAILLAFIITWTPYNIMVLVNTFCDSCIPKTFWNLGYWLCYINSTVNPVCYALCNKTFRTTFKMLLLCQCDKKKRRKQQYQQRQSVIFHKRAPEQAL
Sequence of Galanin receptor type 2 (Homo sapiens) (O43603 whole entry): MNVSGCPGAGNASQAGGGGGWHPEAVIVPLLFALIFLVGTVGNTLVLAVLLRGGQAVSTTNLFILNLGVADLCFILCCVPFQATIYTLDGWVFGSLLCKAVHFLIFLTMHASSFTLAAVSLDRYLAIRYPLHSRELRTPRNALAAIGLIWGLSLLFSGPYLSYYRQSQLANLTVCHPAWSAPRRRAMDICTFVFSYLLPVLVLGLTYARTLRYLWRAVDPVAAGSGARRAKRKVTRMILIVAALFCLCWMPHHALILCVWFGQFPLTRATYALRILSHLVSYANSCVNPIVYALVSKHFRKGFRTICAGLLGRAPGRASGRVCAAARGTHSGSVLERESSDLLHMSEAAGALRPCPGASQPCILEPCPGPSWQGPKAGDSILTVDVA
Sequence of Adenosine receptor A3 (Homo sapiens) (P0DMS8 whole entry): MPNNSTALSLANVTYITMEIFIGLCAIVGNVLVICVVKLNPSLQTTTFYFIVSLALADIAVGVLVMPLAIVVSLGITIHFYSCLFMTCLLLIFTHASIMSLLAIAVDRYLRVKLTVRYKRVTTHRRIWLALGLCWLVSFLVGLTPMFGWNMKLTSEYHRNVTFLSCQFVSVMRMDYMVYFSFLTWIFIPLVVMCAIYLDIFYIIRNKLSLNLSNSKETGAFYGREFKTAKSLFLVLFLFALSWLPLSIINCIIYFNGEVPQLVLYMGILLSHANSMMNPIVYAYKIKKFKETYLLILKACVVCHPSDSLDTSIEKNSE
Sequence of 5-hydroxytryptamine receptor 7 (Homo sapiens) (P34969 whole entry): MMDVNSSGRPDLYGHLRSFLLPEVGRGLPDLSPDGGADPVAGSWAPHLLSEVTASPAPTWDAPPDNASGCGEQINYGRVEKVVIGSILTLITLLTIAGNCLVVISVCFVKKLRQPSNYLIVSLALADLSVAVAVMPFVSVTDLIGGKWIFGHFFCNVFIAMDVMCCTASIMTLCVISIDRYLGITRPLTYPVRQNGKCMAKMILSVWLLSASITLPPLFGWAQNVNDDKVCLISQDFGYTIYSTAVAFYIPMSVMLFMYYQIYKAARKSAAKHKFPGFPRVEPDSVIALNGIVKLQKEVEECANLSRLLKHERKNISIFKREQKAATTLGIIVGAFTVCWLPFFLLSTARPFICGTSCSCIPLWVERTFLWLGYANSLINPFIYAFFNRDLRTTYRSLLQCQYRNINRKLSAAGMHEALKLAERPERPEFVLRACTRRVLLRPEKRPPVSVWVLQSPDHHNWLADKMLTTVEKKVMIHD
Sequence of Prostaglandin E2 receptor EP4 subtype (Homo sapiens) (P35408 whole entry): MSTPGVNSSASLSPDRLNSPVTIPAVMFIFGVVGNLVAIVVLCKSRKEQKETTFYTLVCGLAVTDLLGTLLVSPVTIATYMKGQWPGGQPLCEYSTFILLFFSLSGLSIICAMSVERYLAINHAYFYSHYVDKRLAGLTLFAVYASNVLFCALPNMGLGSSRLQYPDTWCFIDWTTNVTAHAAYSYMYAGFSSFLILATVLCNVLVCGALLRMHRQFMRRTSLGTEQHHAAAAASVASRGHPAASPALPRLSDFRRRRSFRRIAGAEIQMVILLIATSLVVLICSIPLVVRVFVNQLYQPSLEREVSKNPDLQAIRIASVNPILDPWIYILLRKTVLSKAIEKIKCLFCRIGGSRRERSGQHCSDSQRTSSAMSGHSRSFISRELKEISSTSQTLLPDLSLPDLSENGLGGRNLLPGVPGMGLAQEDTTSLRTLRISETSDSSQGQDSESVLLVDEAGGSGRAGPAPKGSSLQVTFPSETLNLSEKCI

CC(C)CCO[C@@H]1[C@H]2OC(C)(C)O[C@H]2[C@H]2Cn3cc(nn3)COCCCCCCN(CCc3ccc4ccccc4c3)CC[C@H]1O2
inhibition [1]: 29.9%
inhibition [2]: 61.4%
inhibition [3]: 87.1%
pIC50 [4]: 6.92
pKi [4]: 7.00
inhibition [5]: 34%
inhibition [6]: 41.2%
inhibition (Rattus norvegicus [7]): 13.4%
inhibition [8]: 17.2%
inhibition [9]: 22.7%
Activity [10]: 17.4%
pIC50 [11]: < 4.00
pKi [11]: < 4.00
inhibition (Rattus norvegicus [12]): 102%
inhibition [13]: 16.1%
